Experiments:
Assay type in all cases: cell-based, human
[1] = tested on: BT-549 breast carcinoma cells; test: Drug cytotoxicity (adriamycin) in BT-549 breast carcinoma cells; settings: BT549 cells containing a control vector
Method: (§1) A control vector, E1A or the E1A mutants (ΔN or ΔCR2) were introduced into tumor cells via retroviral mediated gene transfer and analyzed for drug cytoxicity within a few days of gene transfer. Cell populations were treated with adriamycin or tumor necrosis factor a (or both).

Snos2 osteosarcoma cells = test: Drug cytotoxicity (adriamycin, TNF) in Snos2 osteosarcoma cells; settings: Snos2 cells with control vector, doses tested
Method: as §1

U2OS osteosarcoma cells = test: Drug cytotoxicity (adriamycin, TNF) in U2OS osteosarcoma cells; settings: U2OS cells with control vector, doses tested
Method: as §1

`COc1cccc2c1C(=O)c1c(O)c3c(c(O)c1C2=O)C[C@@](O)(C(=O)CO)C[C@@H]3O[C@H]1C[C@H](N)[C@H](O)[C@H](C)O1` [adriamycin] was tested, and the “apoptosis following drug treatment” value [1] was “unable to induce apoptosis”, the “apoptosis following drug treatment” value (Snos2 osteosarcoma cells) was “do not undergo apoptosis” and the “apoptosis / cell death following drug treatment” value (U2OS osteosarcoma cells) was “do not undergo apoptosis”.
